Assay results from PubChem BioAssay AID248 (DTP/NCI, 2004).
“And” between values parts separate entries of the source, which are not always exact repeats. Equal entries are not always repeated. Inconclusive results and toxic doses are left out.

System: L1210 leukemia ip in BDF1 mice, survival T/C
Assay: NCI In Vivo Anticancer Drug Screen. Data for tumor model L1210 Leukemia (intraperitoneal) in B6D2F1 (BDF1) mice
Details: endpoint: mean survival time, higher = longer survival
How it was run: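 Each compound was tested against a transplantable tumor grown in mice. The endpoint was survival, with treated animals benchmarked against vehicle controls as a simple ratio.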

Structure (SMILES): NC(Cc1c[nH]c2ccc(N(CCCl)CCCl)cc12)C(=O)O (stereo not given)
- T/C (dose: 0.01 mg/kg/injection, schedule: Q#A X Z (ip), vehicle: acid diluted with saline): 124 % of control
- T/C (dose: 0.02 mg/kg/injection, schedule: Q01DX010 (iv), vehicle: acid diluted with saline): 103 % of control
- T/C (dose: 0.02 mg/kg/injection, schedule: Q01DX Z (ip), vehicle: acid diluted with saline): 108 % of control
- T/C (dose: 0.02 mg/kg/injection, schedule: Q01DX Z (ip), vehicle: saline): 119 % of control
- T/C (dose: 0.02 mg/kg/injection, schedule: Q01DX Z (sc), vehicle: acid diluted with saline): 114 % of control
- T/C (dose: 0.05 mg/kg/injection, schedule: Q07DX Z (ip), vehicle: acid diluted with saline): 111 % of control
- T/C (dose: 0.06 mg/kg/injection, schedule: Q01DX010 (iv), vehicle: acid diluted with saline): 108 % of control
- T/C (dose: 0.06 mg/kg/injection, schedule: Q01DX Z (sc), vehicle: acid diluted with saline): 106 % of control
- T/C (dose: 0.09 mg/kg/injection, schedule: Q#A X Z (ip), vehicle: acid diluted with saline): 167 % of control
- T/C (dose: 0.1 mg/kg/injection, schedule: Q03DX Z (oral), vehicle: acid diluted with saline): 110 % of control
- T/C (dose: 0.12 mg/kg/injection, schedule: Q01DX Z (oral), vehicle: acid diluted with saline): 102 % of control
- T/C (dose: 0.12 mg/kg/injection, schedule: Q#A X Z (oral), vehicle: acid diluted with saline): 121 % of control
- T/C (dose: 0.13 mg/kg/injection, schedule: Q01DX Z (ip), vehicle: saline): 169 % of control
- T/C (dose: 0.13 mg/kg/injection, schedule: Q01DX Z (oral), vehicle: acid diluted with saline): 101 % of control
- T/C (dose: 0.15 mg/kg/injection, schedule: Q01DX Z (oral), vehicle: saline): 96 % of control
- T/C (dose: 0.16 mg/kg/injection, schedule: Q07DX Z (ip), vehicle: acid diluted with saline): 103 % of control
- T/C (dose: 0.18 mg/kg/injection, schedule: Q01DX009 (ip), vehicle: saline): 115 % of control
- T/C (dose: 0.18 mg/kg/injection, schedule: Q01DX Z (sc), vehicle: acid diluted with saline): 120 % of control
- T/C (dose: 0.19 mg/kg/injection, schedule: Q03DX Z (oral), vehicle: acid diluted with saline): 114 % of control
- T/C (dose: 0.26 mg/kg/injection, schedule: Q01DX Z (ip), vehicle: saline): 153 % of control and 157 % of control
- T/C (dose: 0.27 mg/kg/injection, schedule: Q#A X Z (ip), vehicle: acid diluted with saline): 97 % of control
- T/C (dose: 0.3 mg/kg/injection, schedule: Q01DX Z (oral), vehicle: saline): 100 % of control
- T/C (dose: 0.38 mg/kg/injection, schedule: Q03DX Z (oral), vehicle: acid diluted with saline): 112 % of control
- T/C (dose: 0.39 mg/kg/injection, schedule: Q01DX Z (ip), vehicle: saline): 166 % of control
- T/C (dose: 0.5 mg/kg/injection, schedule: Q03DX Z (oral), vehicle: acid diluted with saline): 120 % of control
- T/C (dose: 0.5 mg/kg/injection, schedule: Q#A X Z (oral), vehicle: acid diluted with saline): 107 % of control
- T/C (dose: 0.54 mg/kg/injection, schedule: Q01DX Z (ip), vehicle: acid diluted with saline): 198 % of control
- T/C (dose: 0.54 mg/kg/injection, schedule: Q01DX Z (sc), vehicle: acid diluted with saline): 160 % of control
- T/C (dose: 0.58 mg/kg/injection, schedule: Q01DX Z (ip), vehicle: saline): 190 % of control
- T/C (dose: 0.6 mg/kg/injection, schedule: Q01DX Z (oral), vehicle: saline): 101 % of control
- T/C (dose: 0.75 mg/kg/injection, schedule: Q01DX009 (ip), vehicle: saline): 176 % of control
- T/C (dose: 0.75 mg/kg/injection, schedule: Q03DX Z (oral), vehicle: acid diluted with saline): 114 % of control
- T/C (dose: 0.87 mg/kg/injection, schedule: Q01DX Z (ip), vehicle: saline): 211 % of control
- T/C (dose: 0.9 mg/kg/injection, schedule: Q07DX Z (oral), vehicle: acid diluted with saline): 114 % of control
- T/C (dose: 1.0 mg/kg/injection, schedule: Q01DX (oral), vehicle: acid diluted with saline): 189 % of control
- T/C (dose: 1.0 mg/kg/injection, schedule: Q03DX Z (oral), vehicle: acid diluted with saline): 117 % of control
- T/C (dose: 1.2 mg/kg/injection, schedule: Q01DX Z (oral), vehicle: saline): 115 % of control
- T/C (dose: 1.3 mg/kg/injection, schedule: Q07DX003 (ip), vehicle: acid diluted with saline): 155 % of control
- T/C (dose: 1.5 mg/kg/injection, schedule: Q01DX009 (ip), vehicle: saline): 160 % of control and 260 % of control
- T/C (dose: 1.5 mg/kg/injection, schedule: Q03DX (oral), vehicle: acid diluted with saline): 117 % of control
- T/C (dose: 1.5 mg/kg/injection, schedule: Q03DX Z (oral), vehicle: acid diluted with saline): 183 % of control
- T/C (dose: 1.6 mg/kg/injection, schedule: Q01DX Z (sc), vehicle: acid diluted with saline): 103 % of control
- T/C (dose: 1.75 mg/kg/injection, schedule: Q01DX 1 (oral), vehicle: acid diluted with saline): 102 % of control and 107 % of control
- T/C (dose: 1.75 mg/kg/injection, schedule: Q07DX (oral), vehicle: acid diluted with saline): 112 % of control
- T/C (dose: 1.8 mg/kg/injection, schedule: Q07DX Z (oral), vehicle: acid diluted with saline): 117 % of control
- T/C (dose: 1.87 mg/kg/injection, schedule: Q01DX001 (oral), vehicle: carboxymethylcellulose (CMC)): 106 % of control
- T/C (dose: 2.0 mg/kg/injection, schedule: Q01DX (oral), vehicle: acid diluted with saline): 102 % of control
- T/C (dose: 3.5 mg/kg/injection, schedule: Q01DX 1 (oral), vehicle: acid diluted with saline): 110 % of control and 124 % of control
- T/C (dose: 3.5 mg/kg/injection, schedule: Q07DX (oral), vehicle: acid diluted with saline): 114 % of control
- T/C (dose: 3.75 mg/kg/injection, schedule: Q01DX001 (ip), vehicle: carboxymethylcellulose (CMC)): 192 % of control
- T/C (dose: 3.75 mg/kg/injection, schedule: Q01DX001 (oral), vehicle: carboxymethylcellulose (CMC)): 108 % of control
- T/C (dose: 4.0 mg/kg/injection, schedule: Q01DX (oral), vehicle: acid diluted with saline): 106 % of control
- T/C (dose: 5.0 mg/kg/injection, schedule: Q01DX001 (ip), vehicle: saline): 295 % of control
- T/C (dose: 7.0 mg/kg/injection, schedule: Q01DX 1 (oral), vehicle: acid diluted with saline): 110 % of control and 124 % of control
- T/C (dose: 7.0 mg/kg/injection, schedule: Q07DX (oral), vehicle: acid diluted with saline): 123 % of control
- T/C (dose: 7.0 mg/kg/injection, schedule: Q07DX Z (oral), vehicle: acid diluted with saline): 116 % of control
- T/C (dose: 7.5 mg/kg/injection, schedule: Q01DX001 (ip), vehicle: carboxymethylcellulose (CMC)): 264 % of control
- T/C (dose: 7.5 mg/kg/injection, schedule: Q01DX001 (oral), vehicle: carboxymethylcellulose (CMC)): 114 % of control
- T/C (dose: 8.0 mg/kg/injection, schedule: Q01DX (oral), vehicle: acid diluted with saline): 95 % of control
- T/C (dose: 8.0 mg/kg/injection, schedule: Q03DX Z (oral), vehicle: acid diluted with saline): 119 % of control
- T/C (dose: 10.0 mg/kg/injection, schedule: Q01DX001 (ip), vehicle: saline): 270 % of control
- T/C (dose: 14.0 mg/kg/injection, schedule: Q01DX 1 (oral), vehicle: acid diluted with saline): 105 % of control and 115 % of control
- T/C (dose: 14.0 mg/kg/injection, schedule: Q07DX Z (oral), vehicle: acid diluted with saline): 107 % of control
- T/C (dose: 15.0 mg/kg/injection, schedule: Q01DX001 (oral), vehicle: carboxymethylcellulose (CMC)): 119 % of control
- T/C (dose: 16.0 mg/kg/injection, schedule: Q01DX (oral), vehicle: acid diluted with saline): 95 % of control
- T/C (dose: 16.0 mg/kg/injection, schedule: Q01DX Z (oral), vehicle: acid diluted with saline): 116 % of control
- T/C (dose: 20.0 mg/kg/injection, schedule: Q01DX001 (oral), vehicle: saline): 119 % of control
- T/C (dose: 28.0 mg/kg/injection, schedule: Q01DX 1 (oral), vehicle: acid diluted with saline): 104 % of control and 118 % of control
- T/C (dose: 28.0 mg/kg/injection, schedule: Q01DX001 (oral), vehicle: acid diluted with saline): 108 % of control and 118 % of control
- T/C (dose: 28.0 mg/kg/injection, schedule: Q07DX (oral), vehicle: acid diluted with saline): 120 % of control
- T/C (dose: 40.0 mg/kg/injection, schedule: Q01DX001 (oral), vehicle: saline): 86 % of control
- T/C (dose: 56.0 mg/kg/injection, schedule: Q01DX 1 (oral), vehicle: acid diluted with saline): 113 % of control and 121 % of control
- T/C (dose: 56.0 mg/kg/injection, schedule: Q01DX001 (oral), vehicle: acid diluted with saline): 117 % of control and 122 % of control
- T/C (dose: 56.0 mg/kg/injection, schedule: Q07DX (oral), vehicle: acid diluted with saline): 123 % of control
- T/C (dose: 80.0 mg/kg/injection, schedule: Q01DX001 (oral), vehicle: saline): 102 % of control
- T/C (dose: 112.0 mg/kg/injection, schedule: Q01DX001 (oral), vehicle: acid diluted with saline): 120 % of control
- T/C (dose: 168.0 mg/kg/injection, schedule: Q01DX001 (oral), vehicle: acid diluted with saline): 122 % of control
- T/C (dose: 204.0 mg/kg/injection, schedule: Q01DX 1 (oral), vehicle: acid diluted with saline): 106 % of control
- T/C (dose: 204.0 mg/kg/injection, schedule: Q01DX001 (oral), vehicle: acid diluted with saline): 107 % of control
- T/C (dose: 1.0 micrograms/kg/injection, schedule: Q07DX 2 (ip), vehicle: acid diluted with saline): 101 % of control
- T/C (dose: 5.0 micrograms/kg/injection, schedule: Q07DX 2 (ip), vehicle: acid diluted with saline): 102 % of control
- T/C (dose: 16.0 micrograms/kg/injection, schedule: Q07DX 2 (ip), vehicle: acid diluted with saline): 117 % of control
- T/C (dose: 22.0 micrograms/kg/injection, schedule: Q01DX Z (ip), vehicle: saline): 104 % of control
- T/C (dose: 33.0 micrograms/kg/injection, schedule: Q01DX Z (ip), vehicle: saline): 107 % of control
- T/C (dose: 45.0 micrograms/kg/injection, schedule: Q01DX009 (ip), vehicle: saline): 109 % of control
- T/C (dose: 50.0 micrograms/kg/injection, schedule: Q01DX Z (ip), vehicle: saline): 107 % of control
- T/C (dose: 50.0 micrograms/kg/injection, schedule: Q07DX 2 (ip), vehicle: acid diluted with saline): 123 % of control
- T/C (dose: 75.0 micrograms/kg/injection, schedule: Q01DX Z (ip), vehicle: saline): 115 % of control
- T/C (dose: 750.0 micrograms/kg/injection, schedule: Q01DX009 (ip), vehicle: saline): 207 % of control
- T/C (dose: 1500.0 micrograms/kg/injection, schedule: Q01DX009 (ip), vehicle: saline): 219 % of control
